# Laboratory results taken from ChEMBL document CHEMBL1201862, “PubChem BioAssay data set” (2004).
#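 Method: 48-hour compound exposure of cells in 96-well plates, five concentrations, linear interpolation of endpoints. Here, GI50 denotes the concentration required for 50% inhibition of growth.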 Activity calls are given as the source filed them. Rule as the data show it: active = GI50 up to about 1.1 µM and inactive = higher.
# Columns and labels:
# Experiment in all cases: NCI anticancer screen, dose series, 48 h
# MOLT-4 = test system: MOLT-4
# HCC 2998 = test system: HCC 2998
# SN12C = test system: SN12C
# HCT-116 = test system: HCT-116
# UACC-62 = test system: UACC-62
# M14 = test system: M14
# K562 = test system: K562
# Malme-3M = test system: Malme-3M
# RXF 393 = test system: RXF 393
# RPMI-8226 = test system: RPMI-8226
# HT-29 = test system: HT-29
# SK-MEL-2 = test system: SK-MEL-2
# LXFL 529 = test system: LXFL 529
# CAKI-1 = test system: CAKI-1
# HOP-62 = test system: HOP-62
# SF-268 = test system: SF-268
# OVCAR-5 = test system: OVCAR-5
# CCRF-CEM = test system: CCRF-CEM
# SNB-19 = test system: SNB-19
Compound,GI50 (MOLT-4),GI50 (HCC 2998),GI50 (SN12C),GI50 (HCT-116),GI50 (UACC-62),GI50 (M14),GI50 (K562),GI50 (Malme-3M),GI50 (RXF 393),GI50 (RPMI-8226),GI50 (HT-29),GI50 (SK-MEL-2),GI50 (LXFL 529),GI50 (CAKI-1),GI50 (HOP-62),GI50 (SF-268),GI50 (OVCAR-5),GI50 (CCRF-CEM),GI50 (SNB-19)
COc1ccc(NC(=O)CC/C(CC(=O)c2ccco2)=N/Nc2ccc([N+](=O)[O-])cc2[N+](=O)[O-])cc1,29.3 µM (inactive),> 100 µM (inactive),> 100 µM (inactive),76.2 µM (inactive),34.4 µM (inactive),> 100 µM (inactive),32 µM (inactive),> 100 µM (inactive),75.9 µM (inactive),17.1 µM (inactive),48 µM (inactive),72.1 µM (inactive),43.2 µM (inactive),> 100 µM (inactive),> 100 µM (inactive),64 µM (inactive),> 100 µM (inactive),23.7 µM (inactive),> 100 µM (inactive)
CCn1cc(/C=C/C(C)c2cn(CC)c(=O)[nH]c2=O)c(=O)[nH]c1=O (stereo unspecified),> 100 µM (inactive),> 100 µM (inactive),> 100 µM (inactive),,> 100 µM (inactive),> 100 µM (inactive),> 100 µM (inactive),> 100 µM (inactive),> 100 µM (inactive),> 100 µM (inactive),> 100 µM (inactive),> 100 µM (inactive),> 100 µM (inactive),> 100 µM (inactive),> 100 µM (inactive),> 100 µM (inactive),> 100 µM (inactive),> 100 µM (inactive),> 100 µM (inactive)
COCCCCCC(=O)CP(=O)(OC)OC,> 100 µM (inactive),> 100 µM (inactive),> 100 µM (inactive),> 100 µM (inactive),> 100 µM (inactive),> 100 µM (inactive),> 100 µM (inactive),> 100 µM (inactive),> 100 µM (inactive),> 100 µM (inactive),> 100 µM (inactive),> 100 µM (inactive),> 100 µM (inactive),> 100 µM (inactive),> 100 µM (inactive),> 100 µM (inactive),> 100 µM (inactive),> 100 µM (inactive),> 100 µM (inactive)
O=C(CCc1nnc2s/c(=C\c3ccccc3)c(=O)n12)Nc1cc(Cl)ccc1Cl,> 100 µM (inactive),> 100 µM (inactive),> 100 µM (inactive),24 µM (inactive),> 100 µM (inactive),> 100 µM (inactive),> 100 µM (inactive),> 100 µM (inactive),> 100 µM (inactive),> 100 µM (inactive),> 100 µM (inactive),> 100 µM (inactive),> 100 µM (inactive),> 100 µM (inactive),> 100 µM (inactive),> 100 µM (inactive),> 100 µM (inactive),> 100 µM (inactive),> 100 µM (inactive)
CCC(C)c1cccc(C)c1NC(=O)C(=O)Cc1nc2ccccc2s1 (stereo unspecified),> 100 µM (inactive),> 100 µM (inactive),> 100 µM (inactive),> 100 µM (inactive),> 100 µM (inactive),> 100 µM (inactive),> 100 µM (inactive),> 100 µM (inactive),> 100 µM (inactive),> 100 µM (inactive),> 100 µM (inactive),> 100 µM (inactive),> 100 µM (inactive),> 100 µM (inactive),> 100 µM (inactive),> 100 µM (inactive),> 100 µM (inactive),> 100 µM (inactive),> 100 µM (inactive)
C/C=C1/C=CC2c3[nH]c4ccccc4c3CCN2C1 (stereo unspecified),> 400 µM (inactive),> 400 µM (inactive),> 400 µM (inactive),223 µM (inactive),> 400 µM (inactive),,> 400 µM (inactive),> 400 µM (inactive),> 400 µM (inactive),> 400 µM (inactive),> 400 µM (inactive),> 400 µM (inactive),> 400 µM (inactive),> 400 µM (inactive),> 400 µM (inactive),> 400 µM (inactive),,> 400 µM (inactive),187 µM (inactive)
CCCCC1(OC(=O)CCC(=O)O)CCC2(CCC(C)C(C/C=C(C)/C=C/C(O)C(C)/C=C/C(=O)O)O2)OC1CC/C(C)=C/C(=O)O (stereo unspecified),5.02 µM (inactive),3.33 µM (inactive),2.77 µM (inactive),6.19 µM (inactive),0.971 µM (active),1.92 µM (inactive),2.8 µM (inactive),7.73 µM (inactive),1.75 µM (inactive),3.15 µM (inactive),10.3 µM (inactive),1.71 µM (inactive),1.8 µM (inactive),4.14 µM (inactive),2.09 µM (inactive),2.51 µM (inactive),3.94 µM (inactive),3.94 µM (inactive),3.11 µM (inactive)
CC(C)=CCC/C(C)=C/CC/C(C)=C/CC/C=C(\C)CC/C=C(\C)CCC1SC1(C)C (stereo unspecified),> 100 µM (inactive),> 100 µM (inactive),> 100 µM (inactive),> 100 µM (inactive),> 100 µM (inactive),> 100 µM (inactive),> 100 µM (inactive),> 100 µM (inactive),> 100 µM (inactive),> 100 µM (inactive),> 100 µM (inactive),> 100 µM (inactive),> 100 µM (inactive),> 100 µM (inactive),> 100 µM (inactive),> 100 µM (inactive),> 100 µM (inactive),> 100 µM (inactive),> 100 µM (inactive)
N#CC12CC3(CCC1CCC1(C2)OCCO1)OCCO3 (stereo unspecified),> 100 µM (inactive),> 100 µM (inactive),> 100 µM (inactive),> 100 µM (inactive),> 100 µM (inactive),> 100 µM (inactive),> 100 µM (inactive),> 100 µM (inactive),> 100 µM (inactive),> 100 µM (inactive),,> 100 µM (inactive),> 100 µM (inactive),> 100 µM (inactive),> 100 µM (inactive),> 100 µM (inactive),> 100 µM (inactive),> 100 µM (inactive),> 100 µM (inactive)
Nc1ccccc1N,36.7 µM (inactive),> 100 µM (inactive),> 100 µM (inactive),> 100 µM (inactive),> 100 µM (inactive),> 100 µM (inactive),> 100 µM (inactive),> 100 µM (inactive),> 100 µM (inactive),32 µM (inactive),> 100 µM (inactive),> 100 µM (inactive),> 100 µM (inactive),> 100 µM (inactive),> 100 µM (inactive),> 100 µM (inactive),> 100 µM (inactive),21.1 µM (inactive),> 100 µM (inactive)
